Structures are written as SMILES.

The first test deals with LK-2. In words: relative viability (nuclei count vs DMSO), 5 days (fraction); higher = more cells survive. The settings on record: first compound 2.53 µM. The method in brief: (§1)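 Cells from lung cancer lines were seeded into 1536-well plates and, one day later, dosed by pin tool. Treatments were either a single drug or a fixed dose of an anchor drug with five library-drug doses (not always all listed) in √10 steps. After 5 days, nuclei were stained in a one-step fixation (final 0.05% Triton X-100, 1% formaldehyde, 1 ug/ml Hoechst) and counted on 4× images, and relative viability is the treated-to-vehicle nuclei ratio, as the median of duplicate plates.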
Turning to `Oc1nc(-c2ccc(C(F)(F)F)cc2)nc2c1CSCC2` [XAV939] + O=C(c1cc(Cc2n[nH]c(=O)c3ccccc23)ccc1F)N1CCN(C(=O)C2CC2)CC1 [Olaparib] (partner 8 µM), the relative viability was determined as 0.657.

With `Oc1nc(-c2ccc(C(F)(F)F)cc2)nc2c1CSCC2` [XAV939] + CC(=O)c1c(C)c2cnc(Nc3ccc(N4CCNCC4)cn3)nc2n(C2CCCC2)c1=O [Palbociclib] (partner 0.5 µM), the relative viability stood at 0.545.

`C=C1C(=O)O[C@@H](CCCCCCCC)[C@@H]1C(=O)O` [C-75] + CC(=O)c1c(C)c2cnc(Nc3ccc(N4CCNCC4)cn3)nc2n(C2CCCC2)c1=O [Palbociclib] (partner 0.5 µM) displayed a relative viability of 0.495.

Still in this test, the particulars now being: first compound 8 µM.
For `C=C1C(=O)O[C@@H](CCCCCCCC)[C@@H]1C(=O)O` [C-75] + Nc1nc2[nH]cc(CCc3ccc(C(=O)N[C@@H](CCC(=O)O)C(=O)O)cc3)c2c(=O)[nH]1 [Pemetrexed] (partner 0.2 µM), the relative viability stood at 0.246.

In turn, `C=C1C(=O)O[C@@H](CCCCCCCC)[C@@H]1C(=O)O` [C-75] + CC(=O)c1c(C)c2cnc(Nc3ccc(N4CCNCC4)cn3)nc2n(C2CCCC2)c1=O [Palbociclib] (partner 0.5 µM) gave a relative viability of 0.573.

The next test deals with NCI-H1355. The test is described as above. To be noted: first compound 0.08 µM. The procedure, abridged: as §1
`Oc1nc(-c2ccc(C(F)(F)F)cc2)nc2c1CSCC2` [XAV939] + O=C(CCCCCCC(=O)Nc1ccccc1)NO [Vorinostat] (partner 1 µM): the relative viability was 0.688.

`C=C1C(=O)O[C@@H](CCCCCCCC)[C@@H]1C(=O)O` [C-75] + Nc1nc2[nH]cc(CCc3ccc(C(=O)N[C@@H](CCC(=O)O)C(=O)O)cc3)c2c(=O)[nH]1 [Pemetrexed] (partner 0.2 µM) yielded a relative viability of 1.01.

Molecule `Oc1nc(-c2ccc(C(F)(F)F)cc2)nc2c1CSCC2` [XAV939] + O=C(c1cc(Cc2n[nH]c(=O)c3ccccc23)ccc1F)N1CCN(C(=O)C2CC2)CC1 [Olaparib] (partner 8 µM) displayed a relative viability of 0.729.

`Oc1nc(-c2ccc(C(F)(F)F)cc2)nc2c1CSCC2` [XAV939] + CC(=O)c1c(C)c2cnc(Nc3ccc(N4CCNCC4)cn3)nc2n(C2CCCC2)c1=O [Palbociclib] (partner 0.5 µM) displayed a relative viability of 0.401.

In the case of `C=C1C(=O)O[C@@H](CCCCCCCC)[C@@H]1C(=O)O` [C-75] + CC(=O)c1c(C)c2cnc(Nc3ccc(N4CCNCC4)cn3)nc2n(C2CCCC2)c1=O [Palbociclib] (partner 0.5 µM), the relative viability was determined as 0.402.

The test is the same for the next values; noted with them: first compound 0.253 µM.
Take `Oc1nc(-c2ccc(C(F)(F)F)cc2)nc2c1CSCC2` [XAV939] + O=C(CCCCCCC(=O)Nc1ccccc1)NO [Vorinostat] (partner 1 µM): the relative viability was 0.546.

With `C=C1C(=O)O[C@@H](CCCCCCCC)[C@@H]1C(=O)O` [C-75] + Nc1nc2[nH]cc(CCc3ccc(C(=O)N[C@@H](CCC(=O)O)C(=O)O)cc3)c2c(=O)[nH]1 [Pemetrexed] (partner 0.2 µM), the relative viability came out at 1.04.

`Oc1nc(-c2ccc(C(F)(F)F)cc2)nc2c1CSCC2` [XAV939] + O=C(c1cc(Cc2n[nH]c(=O)c3ccccc23)ccc1F)N1CCN(C(=O)C2CC2)CC1 [Olaparib] (partner 8 µM) showed a relative viability of 0.617.

`Oc1nc(-c2ccc(C(F)(F)F)cc2)nc2c1CSCC2` [XAV939] + CC(=O)c1c(C)c2cnc(Nc3ccc(N4CCNCC4)cn3)nc2n(C2CCCC2)c1=O [Palbociclib] (partner 0.5 µM): the relative viability turned out to be 0.319.

The molecule `C=C1C(=O)O[C@@H](CCCCCCCC)[C@@H]1C(=O)O` [C-75] + CC(=O)c1c(C)c2cnc(Nc3ccc(N4CCNCC4)cn3)nc2n(C2CCCC2)c1=O [Palbociclib] (partner 0.5 µM) had a relative viability of 0.388.

Staying with this test, now noted: first compound 0.8 µM.
With `Oc1nc(-c2ccc(C(F)(F)F)cc2)nc2c1CSCC2` [XAV939] + O=C(CCCCCCC(=O)Nc1ccccc1)NO [Vorinostat] (partner 1 µM), the relative viability is 0.552.

Take `C=C1C(=O)O[C@@H](CCCCCCCC)[C@@H]1C(=O)O` [C-75] + Nc1nc2[nH]cc(CCc3ccc(C(=O)N[C@@H](CCC(=O)O)C(=O)O)cc3)c2c(=O)[nH]1 [Pemetrexed] (partner 0.2 µM): the relative viability was found to be 1.05.

In turn, `Oc1nc(-c2ccc(C(F)(F)F)cc2)nc2c1CSCC2` [XAV939] + O=C(c1cc(Cc2n[nH]c(=O)c3ccccc23)ccc1F)N1CCN(C(=O)C2CC2)CC1 [Olaparib] (partner 8 µM) yielded a relative viability of 0.692.

`Oc1nc(-c2ccc(C(F)(F)F)cc2)nc2c1CSCC2` [XAV939] + CC(=O)c1c(C)c2cnc(Nc3ccc(N4CCNCC4)cn3)nc2n(C2CCCC2)c1=O [Palbociclib] (partner 0.5 µM) displayed a relative viability of 0.351.

With `C=C1C(=O)O[C@@H](CCCCCCCC)[C@@H]1C(=O)O` [C-75] + CC(=O)c1c(C)c2cnc(Nc3ccc(N4CCNCC4)cn3)nc2n(C2CCCC2)c1=O [Palbociclib] (partner 0.5 µM), the relative viability was determined as 0.428.

Staying with this test, now noted: first compound 2.53 µM.
As for `Oc1nc(-c2ccc(C(F)(F)F)cc2)nc2c1CSCC2` [XAV939] + O=C(CCCCCCC(=O)Nc1ccccc1)NO [Vorinostat] (partner 1 µM), the relative viability is 0.445.

With `C=C1C(=O)O[C@@H](CCCCCCCC)[C@@H]1C(=O)O` [C-75] + Nc1nc2[nH]cc(CCc3ccc(C(=O)N[C@@H](CCC(=O)O)C(=O)O)cc3)c2c(=O)[nH]1 [Pemetrexed] (partner 0.2 µM), the relative viability is 1.02.

As for `Oc1nc(-c2ccc(C(F)(F)F)cc2)nc2c1CSCC2` [XAV939] + O=C(c1cc(Cc2n[nH]c(=O)c3ccccc23)ccc1F)N1CCN(C(=O)C2CC2)CC1 [Olaparib] (partner 8 µM), the relative viability was 0.487.

Molecule `Oc1nc(-c2ccc(C(F)(F)F)cc2)nc2c1CSCC2` [XAV939] + CC(=O)c1c(C)c2cnc(Nc3ccc(N4CCNCC4)cn3)nc2n(C2CCCC2)c1=O [Palbociclib] (partner 0.5 µM) returned a relative viability of 0.282.

`C=C1C(=O)O[C@@H](CCCCCCCC)[C@@H]1C(=O)O` [C-75] + CC(=O)c1c(C)c2cnc(Nc3ccc(N4CCNCC4)cn3)nc2n(C2CCCC2)c1=O [Palbociclib] (partner 0.5 µM) showed a relative viability of 0.364.

Staying with this test, now noted: first compound 8 µM.
Molecule `C=C1C(=O)O[C@@H](CCCCCCCC)[C@@H]1C(=O)O` [C-75] + Nc1nc2[nH]cc(CCc3ccc(C(=O)N[C@@H](CCC(=O)O)C(=O)O)cc3)c2c(=O)[nH]1 [Pemetrexed] (partner 0.2 µM) yielded a relative viability of 0.974.

The molecule `C=C1C(=O)O[C@@H](CCCCCCCC)[C@@H]1C(=O)O` [C-75] + CC(=O)c1c(C)c2cnc(Nc3ccc(N4CCNCC4)cn3)nc2n(C2CCCC2)c1=O [Palbociclib] (partner 0.5 µM) registered a relative viability of 0.463.

The subject of another test is NCI-H1437. The description is as above. To be noted: first compound 0.08 µM. The method in brief:
as §1
`Oc1nc(-c2ccc(C(F)(F)F)cc2)nc2c1CSCC2` [XAV939] + O=C(CCCCCCC(=O)Nc1ccccc1)NO [Vorinostat] (partner 1 µM) gave a relative viability of 0.834.

For `C=C1C(=O)O[C@@H](CCCCCCCC)[C@@H]1C(=O)O` [C-75] + Nc1nc2[nH]cc(CCc3ccc(C(=O)N[C@@H](CCC(=O)O)C(=O)O)cc3)c2c(=O)[nH]1 [Pemetrexed] (partner 0.2 µM), the relative viability came out at 0.314.

Regarding `Oc1nc(-c2ccc(C(F)(F)F)cc2)nc2c1CSCC2` [XAV939] + O=C(c1cc(Cc2n[nH]c(=O)c3ccccc23)ccc1F)N1CCN(C(=O)C2CC2)CC1 [Olaparib] (partner 8 µM), the relative viability is 0.631.

The molecule `Oc1nc(-c2ccc(C(F)(F)F)cc2)nc2c1CSCC2` [XAV939] + CC(=O)c1c(C)c2cnc(Nc3ccc(N4CCNCC4)cn3)nc2n(C2CCCC2)c1=O [Palbociclib] (partner 0.5 µM) yielded a relative viability of 0.32.
